Data reported in patent US4730054A, “Imidazole thieno-benzothiepins” (SPOFA, Spojene Podinky Pro Zdravotnickou Vyrobu, priority 1985, dated 1988).
Converted amounts (≈) assume the structure as drawn.

Legend:
[1] = tested on: S pastorianus; assay: MIC by standard dilution method in a liquid nutrient medium; type: cell-based, Saccharomuces pastorianus; conditions: inoculum 10^4 CFU/ml, read-out: Antimycotic Activity (MIC)
Excerpt: (§1) For example, the new compounds were compared in vitro with the known antimycotic agents clotrimazole, miconazole and ketoconazole, in order to determine their minimum inhibitive concentrations (MICs). See, Fromtling, R. A., "Imidazoles as medically important antifungal agents: an overview," 20 Drugs of Today No. 7, 328-331 (1984); Burgess & Bodey, "Clotrimazole," 2 Antimicrobial Agents and Chemotherapy No. 6, 423-6 (1972). […] The test innoculum size was 10^6 CFU/ml for Aspergillus niger and Trichophyton mentagrophytes and 10^4 CFU/ml for Saccharomuces pastorianus and Candida albicans, where CFU is the standard abbreviation for microbial cell counts.

[2] = tested on: A niger; assay: as above; type: cell-based; conditions: Aspergillus niger, inoculum 10^6 CFU/ml, read-out: Antimycotic Activity (MIC)
Excerpt: as §1

[3] = tested on: C albicans; assay: as above; type: cell-based; conditions: Candida albicans, inoculum 10^4 CFU/ml, read-out: Antimycotic Activity (MIC)
Excerpt: as §1

[4] = tested on: T mentagrophytes; assay: as above; type: cell-based; conditions: Trichophyton mentagrophytes, inoculum 10^6 CFU/ml, read-out: Antimycotic Activity (MIC)
Excerpt: as §1

[5] = tested on: clinical strain isolates of pathogenic molds (a total of 16); assay: Sensitivity of clinical mold strain isolates, dilution method on Sabouraud agar; type: cell-based; conditions: 16 clinical mold strains
Protocol: (§2) The sensitivity of a larger number of clinical strain isolates of pathogenic molds (a total of 16) as well as yeasts and related microorganisms (a total of 21) when exposed to the inventive compounds was determined using the dilution method on Sabouraud agar. Thus, the experimental MIC values for mold strains exposed to Compound Ia were from 0.7 to 100 mg/l.

[6] = tested on: pathogenic molds as well as yeasts and related microorganisms; assay: Effect of addition of serum or blood to the agar test plate on antimycotic effect, Sabouraud agar; type: cell-based; conditions: for effect of addition of serum or blood to the agar test plate: in comparison to the protein-free agar culture values; for potency in the presence of biological protein substances: such as blood constituents
Protocol: as §2

[7] = tested on: Candida albicans; assay: Vaginal candidosis induced experimentally in mice, intravaginal administration; type: in vivo, Candida albicans (in mice); conditions: for inhibition of the test culture: ten days
Protocol: The in vivo evaluation of antimycotic activity was performed using a model of vaginal candidosis induced experimentally in mice by Candida albicans. The test substances were administered intravaginally over a period of ten days in the form of homogenized suspensions of appropriately chosen concentrations in a 0.5% aqueous hydroxyethylcellulose solution. The results were evaluated both immediately upon administration and after one and two weeks.

[8] = tested on: about forty pathogenic yeast and mold strains; assay: MIC in dilution tests on Sabouraud agar, about forty pathogenic yeast and mold strains; type: cell-based
Protocol: The sensitivity of a larger number of clinical strain isolates of pathogenic molds (a total of 16) as well as yeasts and related microorganisms (a total of 21) when exposed to the inventive compounds was determined using the dilution method on Sabouraud agar.

[9] = tested on: typical inducers of dermal mycoses; assay: Antimycotic activity against typical inducers of dermal mycoses compared with clotrimazole and miconazole; type: cell-based
Protocol: (§3) For example, the new compounds were compared in vitro with the known antimycotic agents clotrimazole, miconazole and ketoconazole, in order to determine their minimum inhibitive concentrations (MICs). See, Fromtling, R. A., "Imidazoles as medically important antifungal agents: an overview," 20 Drugs of Today No. 7, 328-331 (1984); Burgess & Bodey, "Clotrimazole," 2 Antimicrobial Agents and Chemotherapy No. 6, 423-6 (1972). MIC values were determined by the standard dilution method in a liquid nutrient medium, primarily with the following yeast and mold species typically used in preliminary antimycotic screening: Saccharomuces pastorianus, Candida albicans, Trichophyton mentagrophytes, and Aspergillus niger. The test innoculum size was 10^6 CFU/ml for Aspergillus niger and Trichophyton mentagrophytes and 10^4 CFU/ml for Saccharomuces pastorianus and Candida albicans, where CFU is the standard abbreviation for microbial cell counts.

[10] = tested on: Aspergillus strains; assay: Antimycotic activity against Aspergillus strains compared with clotrimazole and miconazole; type: cell-based
Protocol: as §3

[11] = Standard test for mutagenity; conditions: standard tests
[12] = Standard test for cancerogenity; conditions: standard tests
[13] = Standard test for teratogenity; conditions: standard tests
[14] = Standard test for foetal damage; conditions: standard tests
[15] = Standard test for dermal irritation; type: in vivo; conditions: standard tests
[16] = Standard test for vaginal irritation; type: in vivo; conditions: standard tests
[17] = Chronic (one month) toxicity on intravaginal administration, rat; type: in vivo
[18] = Chronic (one month) toxicity on intravaginal administration, dog; type: in vivo
[19] = Acute toxicity LD50 in rats p.o.; conditions: for LD50: rat, in vivo, po

`Clc1ccccc1C(c1ccccc1)(c1ccccc1)n1ccnc1` [Clotrimazole] showed an MIC [1] of 3.1 µg/mL (≈ 8.99 µM), an MIC [2] of 3.1 µg/mL (≈ 8.99 µM) and an MIC [3] of 0.7 µg/mL (≈ 2.03 µM). The MIC [4] was 0.03 µg/mL (≈ 0.087 µM), the MIC [5] was 0.01 to 1.5 µg/mL (≈ 0.029 to 4.35 µM) and the “effect of addition of serum or blood to the agar test plate” value (shortened to “effect of addition of serum or blood”) [6] was “diminished the effect of clotrimazole about one third”.
`c1ccc2c(c1)CSc1sccc1C2n1ccnc1` (centres unmarked) [Compound Ia, 4-(1-imidazolyl)-4,9-dihydrothieno(2,3-c)-2-benzothiepin] gave an MIC [1] of 25 µg/mL (≈ 87.9 µM), an MIC [2] of 0.7 µg/mL (≈ 2.46 µM) and an MIC [3] of 25 µg/mL (≈ 87.9 µM). For the same compound, the MIC [4] was 1.5 µg/mL (≈ 5.27 µM), the MIC [5] was 0.7 to 100 µg/mL (≈ 2.46 to 352 µM) and the “effect of addition of serum or blood” value [6] was “doubled the effect”. The “potency in the presence of biological protein substances” value [6] was “actually improved”, the “prophylactic (preventative) effect” value ([7]; intravaginal, concentration of 7.5%) was “significant prophylactic (preventative) effect” and the “inhibition of the test culture” value ([7]; intravaginal, concentration of 7.5%, therapy starting 24 hours prior to infection) was “complete inhibition”. The “inhibition of the test culture” value ([7]; intravaginal, concentration of 7.5%, therapy starting simultaneously with infection) was “complete inhibition” and the “results when therapy was delayed” value ([7]; intravaginal, therapy delayed until 24 hours after infection) was “somewhat less favorable”.
Work on `Clc1ccc2c(c1)C(n1ccnc1)c1ccsc1SC2` (centres unmarked) [Compound Ib, 6-chloro-4-(1-imidazolyl)-4,9-dihydrothieno(2,3-c)-2-benzothiepin] yielded an MIC [1] of 12.5 µg/mL (≈ 39.2 µM), an MIC [2] of 0.03 µg/mL (≈ 0.0941 µM) and an MIC [3] of 3.1 µg/mL (≈ 9.72 µM). The MIC [4] was 0.03 µg/mL (≈ 0.0941 µM), the MIC [5] was 0.01 to 1.5 µg/mL (≈ 0.0314 to 4.7 µM) and the “effect of addition of serum or blood” value [6] was “had no effect”. For the same compound, the “potency in the presence of biological protein substances” value [6] was “not diminished”, the “therapeutic effect on vaginal Candida albicans infections” value ([7]; topical application) was “beneficial therapeutic effect” and the “Minimum MIC values” [8] was 0.01 to 25 µg/mL. For the same compound, the “level of activity against typical inducers of dermal mycoses” value [9] was “similarly potent level of activity”, the “activity against Aspergillus strains” value [10] was “notably increased activity” and the mutagenity [11] was “negative”. The cancerogenity [12] was “negative”, the teratogenity [13] was “negative” and the foetal damage [14] was “negative”. The dermal irritation [15] was “negative”, the vaginal irritation [16] was “negative” and the “chronic (one month) toxicity” value [17] was “negative”. For the same compound, the “chronic (one month) toxicity” value [18] was “negative”, the LD50 ([19]; LD50, female rats) was 1120 mg/kg and the LD50 ([19]; LD50, male rats) was 1570 mg/kg. For the same compound, the toxicity ([19]; rats) was “only slightly toxic”.
For `CC(=O)N1CCN(c2ccc(OCC3COC(Cn4ccnc4)(c4ccc(Cl)cc4Cl)O3)cc2)CC1` (centres unmarked) [Ketoconazole], the MIC [1] was 50 µg/mL (≈ 94.1 µM), the MIC [2] was 12.5 µg/mL (≈ 23.5 µM) and the MIC [3] was 0.03 µg/mL (≈ 0.0565 µM). For the same compound, the MIC [4] was 0.7 µg/mL (≈ 1.32 µM).
For `Clc1ccc(COC(Cn2ccnc2)c2ccc(Cl)cc2Cl)c(Cl)c1` (centres unmarked) [Miconazole], the MIC [1] was 6.2 µg/mL (≈ 14.9 µM), the MIC [2] was 1.5 µg/mL (≈ 3.6 µM) and the MIC [3] was 0.7 µg/mL (≈ 1.68 µM). For the same compound, the MIC [4] was 0.03 µg/mL (≈ 0.0721 µM).
